Measurements taken from patent US8258115B2, “Stable salts of S-adenosylmethionine and process for the preparation thereof” (priority 2007, dated 2012).

Tests used:
Assay type in all cases: physicochemical
[1] = Degradation of the active stereoisomer S,S at 25° C. and 65% R.H.
Experimental: (§1) In the following Tables 14-25, the percentage values are reported of the degradation of the active stereoisomer S,S calculated at 40° C. and 75% R.H. (Tables 14-19) and at 25° C. and 65% R.H.

[2] = Degradation of the active stereoisomer S,S at 40° C. and 75% R.H.
Experimental: as §1

[3] = Stability test in thermostated heaters at 25° C. and 60% R.H., active ingredient %; conditions: heat-sealed aluminium/aluminium bags
Experimental: (§2) In the following Tables 2-13, the percentage values are repotted which were obtained in the stability tests carried out on the products of examples 1-6. The stability tests were carried out in thermostated heaters at 40° C. and 75% R.H (tables 2-7) as well as 25° C. and 60% R.H. (tables 8-13), preserving the samples in heat-sealed aluminium/aluminium bags according to the following criteria: the active ingredient % was determined for every sampling point taken under consideration.

[4] = Stability test in thermostated heaters at 40° C. and 75% R.H., active ingredient %; conditions: heat-sealed aluminium/aluminium bags
Experimental: as §2

[5] = Moisture % K.F. of the stability samples; conditions: sample used in the stability test
Experimental: as §2, with “the active ingredient % was determined for every sampling point taken under consideration.” left out

Row | SMILES | percentage of the active S,S stereoisomer remaining ([1]; 30 days) | percentage of the active S,S stereoisomer remaining ([1]; 90 days) | percentage of the active S,S stereoisomer remaining ([1]; 180 days) | percentage of the active S,S stereoisomer remaining ([1]; 360 days) | percentage of the active S,S stereoisomer remaining ([1]; 720 days) | percentage of the active S,S stereoisomer remaining ([1]; T = 0) | percentage of active S,S stereoisomer remaining ([2]; 30 days) | percentage of active S,S stereoisomer remaining ([2]; 60 days) | percentage of active S,S stereoisomer remaining ([2]; 90 days) | percentage of active S,S stereoisomer remaining ([2]; 120 days) | percentage of active S,S stereoisomer remaining ([2]; 180 days) | percentage of active S,S stereoisomer remaining ([2]; T = 0) | stability test percentage value (active ingredient %), 30 days [3] | stability test percentage value (active ingredient %), 90 days [3] | stability test percentage value (active ingredient %), 180 days [3] | stability test percentage value (active ingredient %), 360 days [3] | stability test percentage value (active ingredient %), 720 days [3] | stability test percentage value (active ingredient %), 30 days [4] | stability test percentage value (active ingredient %), 60 days [4] | stability test percentage value (active ingredient %), 90 days [4] | further results
1 | C[S+](CCC(N)C(=O)[O-])C[C@H]1O[C@@H](n2cnc3c(N)ncnc32)[C@H](O)[C@@H]1O.Cl.Cl.[Cl-].[Cl-].[Mg+2] (some centres unmarked) [SAMe•2.0HCl•1.0MgCl2] | 96.6% | 95.7% | 94.7% | 92.5% | 88.0% | 97.4% | 92.9% | 87.8% | 83.4% | 82.1% | 78.2% | 97.4% | 0.17% | 0.37% | 0.58% | 0.74% | 0.98% | 0.27% | 0.45% | 1.14% | stability test percentage value (active ingredient %), 120 days [4]: 1.45%; stability test percentage value (active ingredient %), 180 days [4]: 1.89%; Moisture % K.F. [5]: 0.44%
2 | C[S+](CCC(N)C(=O)[O-])C[C@H]1O[C@@H](n2cnc3c(N)ncnc32)[C@H](O)[C@@H]1O.C[S+](CCC(N)C(=O)[O-])C[C@H]1O[C@@H](n2cnc3c(N)ncnc32)[C@H](O)[C@@H]1O.O=S(=O)(O)O.[Cl-].[Cl-].[Mg+2] (some centres unmarked) [SAMe•0.5H2SO4•0.5MgCl2] | 97.8% | 96.8% | 93.6% | 90.6% | 87.6% | 98.2% | 89.8% | 86.8% | 83.6% | 80.6% | 77.6% | 98.2% | 0.12% | 0.25% | 0.35% | 0.57% | 0.79% | 0.36% | 0.70% | 1.16% | stability test percentage value (active ingredient %), 120 days [4]: 1.66%; stability test percentage value (active ingredient %), 180 days [4]: 2.45%; Moisture % K.F. [5]: 0.61%
3 | C[S+](CCC(N)C(=O)[O-])C[C@H]1O[C@@H](n2cnc3c(N)ncnc32)[C@H](O)[C@@H]1O.C[S+](CCC(N)C(=O)[O-])C[C@H]1O[C@@H](n2cnc3c(N)ncnc32)[C@H](O)[C@@H]1O.O=S(=O)(O)O.[Ca+2].[Cl-].[Cl-] (some centres unmarked) [SAMe•0.5H2SO4•0.5CaCl2] | 97.8% | 96.7% | 93.6% | 90.8% | 88.6% | 98.2% | 89.8% | 86.8% | 83.6% | 80.6% | 77.6% | 98.2% | 0.23% | 0.35% | 0.57% | 0.78% | 0.99% | 0.48% | 0.76% | 1.48% | stability test percentage value (active ingredient %), 120 days [4]: 1.98%; stability test percentage value (active ingredient %), 180 days [4]: 3.99%; Moisture % K.F. [5]: 0.23%
4 | C[S+](CCC(N)C(=O)[O-])C[C@H]1O[C@@H](n2cnc3c(N)ncnc32)[C@H](O)[C@@H]1O.C[S+](CCC(N)C(=O)[O-])C[C@H]1O[C@@H](n2cnc3c(N)ncnc32)[C@H](O)[C@@H]1O.O=S(=O)(O)O.O=S(=O)([O-])[O-].[Mg+2] (some centres unmarked) [SAMe•0.5H2SO4•0.5Mg2SO4•0.4H2O] | 97.8% | 96.8% | 95.6% | 92.6% | 88.6% | 98.2% | 90.8% | 88.8% | 85.6% | 82.6% | 78.6% | 98.2% | 0.23% | 0.45% | 0.65% | 0.87% | 0.99% | 0.57% | 0.65% | 0.96% | stability test percentage value (active ingredient %), 120 days [4]: 1.40%; stability test percentage value (active ingredient %), 180 days [4]: 2.18%; Moisture % K.F. [5]: 0.57%
